From patent US20130344026A1, “Dimeric Smac Mimetics” (priority 2009, published 2013)
*1 amine or outer side, *2 acyl side, *3 side chain or, on linkers, in order; H or OH if unused. Where a SMILES comes first, the peptide text is derived from it. Bridges are numbered along the chain shown (N, C = ends). Roman numbers before positions name the chains, in order. [ ]: non-standard residue; d: D form. Piperazine(1,4-diyl) = C1CN([*:2])CCN1[*:1]; Chg = N[C@H](C(=O)O)C1CCCCC1; Tle = CC(C)(C)[C@H](N)C(=O)O; NMeA = CN[C@@H](C)C(=O)O

test system: HCC461; experiment: cell viability assay in HCC461, compound alone; format: cell-based; conditions: HCC461, HCC461; Tables 6-9; read-out: IC50 (μM) in cell viability assay in HCC461

IC50 [µM]	SMILES
0.849	CN[C@@H](C)C(=O)N[C@H](C(=O)N1C[C@@H](NC(=O)c2cccc(C(=O)NCC[C@@H](NC(=O)[C@H](NC(=O)[C@H](N)CO)C(C)C)C(=O)N[C@@H](C)C(C)C)c2)C[C@H]1C(=O)N[C@@H]1CCCc2ccccc21)C(C)(C)C [Compound 139]
0.016	CN[C@@H](C)C(=O)N[C@H](C(=O)N1C[C@@H](NC(=O)c2cccc(C(=O)N[C@H]3C[C@@H](C(=O)N[C@@H]4CCCc5ccccc54)N(C(=O)[C@@H](NC(=O)[C@H](C)NC)C(C)(C)C)C3)c2)C[C@H]1C(=O)N[C@H](C)C(C)C)C(C)C [Compound 133]
0.121	CN[C@@H](C)C(=O)N[C@@H](CCC(=O)OC)C(=O)N1C[C@@H](NC(=O)c2cccc(C(=O)N[C@H]3C[C@@H](C(=O)N[C@H](C)c4ccccc4)N(C(=O)[C@@H](NC(=O)[C@H](C)NC)C(C)(C)C)C3)c2)CC1C(=O)N[C@H](C)c1ccccc1 (some centres unmarked) [Compound 150]
0.043	CN[C@@H](C)C(=O)N[C@@H](CCCCNC(=O)c1cccc(C(=O)N[C@H]2C[C@@H](C(=O)N[C@@H]3CCCc4ccccc43)N(C(=O)[C@@H](NC(=O)[C@H](C)NC)C(C)(C)C)C2)c1)C(=O)N1CC=C[C@H]1C(=O)N[C@@H]1CCCc2ccccc21 [Compound 144]
> 30	CN[C@@H](C)C(=O)N[C@@H](C)C(=O)N[C@H]1C[C@@H](C(=O)N[C@@H]2CCCc3ccccc32)N(C(=O)[C@@H](NC(=O)[C@H](C)NC)C(C)(C)C)C1 [Compound 146]
0.221	CN[C@@H](C)C(=O)N[C@H](C(=O)N1C[C@@H](NC(=O)CC[C@@H](NC(=O)[C@H](NC(=O)[C@@H](C)NC)C(C)(C)C)C(=O)N[C@H]2CCCc3ccccc32)C[C@H]1C(=O)N[C@H](C)C(C)C)C(C)(C)C [Compound 159]

SMILES	IC50 [µM]
CN[C@@H](C)C(=O)NC(C(=O)N1C[C@@H](NC(=O)c2cccc(C(=O)NCCCC[C@H](NC(=O)C(NC(C)[C@H](C)NC)C(C)(C)C)C(=O)N3CCCCC3)c2)C[C@H]1C(=O)N[C@@H]1CCCc2ccccc21)C(C)(C)C (some centres unmarked) [Compound 152]	0.447

same assay, conditions: HCC461, HCC461; Tables 15-18; read-out: IC50 (uM) in cell viability assay in HCC461

SMILES	IC50 [µM]
CN[C@@H](C)C(=O)N[C@@H](CCCCCC[C@H](NC(=O)[C@H](C)NC)C(=O)N1CCC[C@H]1C(=O)N(C)Cc1ccccc1)C(=O)N1CCC[C@H]1C(=O)N(C)Cc1ccccc1 [Compound P2-4]	0.037
CN[C@@H](C)C(=O)N[C@H](C(=O)N1CCC[C@H]1C(=O)N[C@H](C(=O)N1CCN(C(=O)[C@@H](NC(=O)[C@@H]2CCCN2C(=O)[C@@H](NC(=O)[C@H](C)NC)C(C)(C)C)C2CCCCC2)CC1)C1CCCCC1)C(C)(C)C [Compound P4-10] (I: H-[NMeA][Tle]P[Chg] / II: H-[NMeA][Tle]P[Chg]; linker I:C-II:C via Piperazine(1,4-diyl))	0.26
CN[C@@H](C)C(=O)N[C@H](C(=O)N1CCC[C@H]1C(=O)N[C@H](C(=O)NCCC#CC#CCCNC(=O)[C@@H](NC(=O)[C@@H]1CCCN1C(=O)[C@@H](NC(=O)[C@H](C)NC)C(C)(C)C)C1CCCCC1)C1CCCCC1)C(C)(C)C [Compound P4-1]	0.08
CN[C@@H](C)C(=O)N[C@@H](CCCCCC[C@H](NC(=O)[C@H](C)NC)C(=O)N1C[C@@H](NS(=O)(=O)c2ccccc2)C[C@H]1C(=O)N[C@@H]1CCCc2ccccc21)C(=O)N1C[C@@H](NS(=O)(=O)c2ccccc2)C[C@H]1C(=O)N[C@@H]1CCCc2ccccc21 [Compound P2-14]	0.092
CN[C@@H](C)C(=O)N[C@@H](CC#CC#CC[C@H](NC(=O)[C@H](C)NC)C(=O)N1CSC[C@H]1C(=O)N[C@@H]1CCCc2ccccc21)C(=O)N1CSC[C@H]1C(=O)N[C@@H]1CCCc2ccccc21 [Compound P2-33]	0.188
CN[C@@H](C)C(=O)N[C@H](C(=O)N1CCC[C@H]1C(=O)NC1c2ccccc2-c2ccccc21)[C@@H](C)OCCCCCCO[C@H](C)[C@H](NC(=O)[C@H](C)NC)C(=O)N1CCC[C@H]1C(=O)NC1c2ccccc2-c2ccccc21 [Compound P2-16]	0.03

More lines, now with the values ahead:

IC50 [µM]	SMILES
0.121	CN[C@@H](C)C(=O)N[C@@H](CCCCNC(=O)c1cc(N)cc(C(=O)NCCCC[C@H](NC(=O)[C@H](C)NC)C(=O)N2CCC[C@H]2C(=O)N[C@@H]2CCCc3ccccc32)c1)C(=O)N1CCC[C@H]1C(=O)N[C@@H]1CCCc2ccccc21 [Compound P2-24]
0.025	CN[C@@H](C)C(=O)N[C@@H](COCC#CC#CCOC[C@H](NC(=O)[C@H](C)NC)C(=O)N1CCCC1C(=O)N[C@@H]1CCCc2ccccc21)C(=O)N1CCCC1C(=O)N[C@@H]1CCCc2ccccc21 (some centres unmarked) [Compound P2-19]

same assay, conditions: HCC461, HCC461 cells, compound alone; read-out: IC50 (uM) in cell viability assay in HCC461

SMILES	IC50 [µM]
CN[C@@H](C)C(=O)N[C@H](C(=O)N1C[C@@H](NC(=O)C2CCCC(C(=O)N[C@H]3C[C@@H](C(=O)N[C@H](C)C4CCCCC4)N(C(=O)[C@@H](NC(=O)[C@H](C)NC)C(C)(C)C)C3)C2)C[C@H]1C(=O)N[C@H](C)C1CCCCC1)C(C)(C)C (some centres unmarked) [Compound P3-46]	0.024
CN[C@@H](C)C(=O)N[C@H](C(=O)N1C[C@@H](NC(=O)c2cc(C(=O)N[C@H]3C[C@@H](C(=O)N[C@H](C)c4ccccc4)N(C(=O)[C@@H](NC(=O)[C@H](C)NC)C4CCCCC4)C3)[nH]n2)C[C@H]1C(=O)N[C@H](C)c1ccccc1)C1CCCCC1 [Compound P3-79]	0.057
CN[C@@H](C)C(=O)N[C@H](C(=O)N1C[C@@H](NC(=O)c2nc[nH]c2C(=O)N[C@H]2C[C@@H](C(=O)N[C@@H]3CCCc4ccccc43)N(C(=O)[C@@H](NC(=O)[C@H](C)NC)C(C)(C)C)C2)C[C@H]1C(=O)N[C@@H]1CCCc2ccccc21)C(C)(C)C [Compound P3-36]	2.38
CN[C@@H](CO)C(=O)N[C@H](C(=O)N1C[C@@H](NC(=O)c2cccc(C(=O)N[C@H]3C[C@@H](C(=O)N[C@H](C)c4ccccc4)N(C(=O)[C@@H](NC(=O)[C@H](CO)NC)C(C)C)C3)c2)C[C@H]1C(=O)N[C@H](C)c1ccccc1)C(C)C [Compound P3-89]	0.073
CN[C@@H](C)C(=O)N[C@H](C(=O)N1C[C@@H](NC(=O)CCCCCCC(=O)N[C@H]2C[C@@H](C(=O)N[C@@H]3CCCc4ccccc43)N(C(=O)[C@@H](NC(=O)[C@H](C)NC)C(C)(C)C)C2)C[C@H]1C(=O)N[C@@H]1CCCc2ccccc21)C(C)(C)C [Compound P3-85]	0.099
CN[C@@H](C)C(=O)N[C@H](C(=O)N1C[C@@H](NC(=O)C/C=C/CC(=O)N[C@H]2C[C@@H](C(=O)N[C@@H]3CCCc4ccccc43)N(C(=O)[C@@H](NC(=O)[C@H](C)NC)C(C)(C)C)C2)C[C@H]1C(=O)N[C@@H]1CCCc2ccccc21)C(C)(C)C [Compound P3-32]	0.006
CN[C@@H](C)C(=O)N[C@H](C(=O)N1C[C@@H](NC(=O)c2cccc(C(=O)N[C@H]3C[C@@H](C(=O)N[C@@H]4CCCc5ccccc54)N(C(=O)[C@@H](NC(=O)[C@H](C)NC)C(C)(C)C)C3)n2)C[C@H]1C(=O)N[C@@H]1CCCc2ccccc21)C(C)(C)C [Compound P3-10]	0.046
CN[C@@H](C)C(=O)N[C@H](C(=O)N1C[C@@H](N2CC(CCCC3CN([C@H]4C[C@@H](C(=O)NC5c6ccccc6-c6ccccc65)N(C(=O)[C@@H](NC(=O)[C@H](C)NC)C(C)(C)C)C4)N=N3)N=N2)C[C@H]1C(=O)NC1c2ccccc2-c2ccccc21)C(C)(C)C (some centres unmarked) [Compound P3-6]	0.007

Other lines, results leading:

IC50 [µM]	SMILES
0.02	CN[C@@H](C)C(=O)N[C@H](C(=O)N1C[C@@H](NC(=O)c2cc(N)cc(C(=O)N[C@H]3C[C@@H](C(=O)NC4c5ccccc5-c5ccccc54)N(C(=O)[C@@H](NC(=O)[C@H](C)NC)C(C)(C)C)C3)c2)C[C@H]1C(=O)NC1c2ccccc2-c2ccccc21)C(C)(C)C [Compound P3-61]
0.058	CN[C@@H](C)C(=O)N[C@H](C(=O)N1C[C@@H](NC(=O)c2cc(N)cc(C(=O)N[C@H]3C[C@@H](C(=O)N[C@H](C)c4ccccc4)N(C(=O)[C@@H](NC(=O)[C@H](C)NC)C(C)C)C3)c2)C[C@H]1C(=O)N[C@H](C)c1ccccc1)C(C)C [Compound P3-81]
0.047	C#CC[C@H](NC(=O)[C@H](C)NC)C(=O)N1C[C@@H](NC(=O)c2cccc(C(=O)N[C@H]3C[C@@H](C(=O)N[C@@H]4CCCc5ccccc54)N(C(=O)[C@H](CC#C)NC(=O)[C@H](C)NC)C3)c2)C[C@H]1C(=O)N[C@@H]1CCCc2ccccc21 [Compound P3-12]
0.048	CN[C@@H](C)C(=O)N[C@H](C(=O)N1C[C@@H](NC(=O)CNCC(=O)N[C@H]2C[C@@H](C(=O)N[C@@H]3CCCc4ccccc43)N(C(=O)[C@@H](NC(=O)[C@H](C)NC)C(C)(C)C)C2)C[C@H]1C(=O)N[C@@H]1CCCc2ccccc21)C(C)(C)C [Compound P3-35]
0.025	CC[C@H](C)C(NC(=O)[C@H](C)NC)C(=O)N1C[C@@H](NC(=O)c2cccc(C(=O)N[C@H]3C[C@@H](C(=O)N(C)[C@H](C)c4ccccc4)N(C(=O)C(NC(=O)[C@H](C)NC)[C@@H](C)CC)C3)c2)C[C@H]1C(=O)N(C)C(C)c1ccccc1 (some centres unmarked) [Compound P3-68]
0.008	CN[C@@H](C)C(=O)N[C@H](C(=O)N1C[C@@H](NC(=O)c2cc(C(=O)N[C@H]3C[C@@H](C(=O)NC(c4ccccc4)c4ccccc4)N(C(=O)[C@@H](NC(=O)[C@H](C)NC)C(C)(C)C)C3)[nH]n2)C[C@H]1C(=O)NC(c1ccccc1)c1ccccc1)C(C)(C)C [Compound P3-64]
0.017	CN[C@@H](C)C(=O)N[C@H](C(=O)N1C[C@@H](NC(=O)c2cccc(C(=O)N[C@H]3C[C@@H](C(=O)N[C@@H]4CCCc5ccccc54)N(C(=O)[C@@H](NC(=O)[C@H](C)NC)C(C)C)C3)c2)C[C@H]1C(=O)N[C@@H]1CCCc2ccccc21)C(C)C [Compound P3-55]

same assay, conditions: HCC461; Tables 15-18; read-out: IC50 (uM) in cell viability assay in HCC461

SMILES	IC50 [µM]
CN[C@@H](C)C(=O)N[C@H](C(=O)N1CCC[C@H]1C(=O)N[C@H](CNC(=O)C1CCCCC1C(=O)NC[C@@H](NC(=O)[C@@H]1CCCN1C(=O)[C@@H](NC(=O)[C@H](C)NC)C(C)(C)C)C1CCCCC1)C1CCCCC1)C(C)(C)C (single isomer, unassigned) [Compound P4-3]	0.03

same assay, conditions: HCC461 cells, compound alone; read-out: IC50 (uM) in cell viability assay in HCC461

IC50 [µM]	SMILES
0.019	CN[C@@H](C)C(=O)N[C@H](C(=O)N1C[C@@H](NC(=O)C2CCCC(C(=O)N[C@H]3C[C@@H](C(=O)NC4CCCc5ccccc54)N(C(=O)[C@@H](NC(=O)[C@H](C)NC)C(C)(C)C)C3)C2)CC1C(=O)N[C@@H]1CCCc2ccccc21)C(C)(C)C (some centres unmarked) [Compound P3-28]
